Experiments:
[1] = target: T1, SD-line rat AhR (Rattus norvegicus, UniProt P41738, Q794H); assay: Reporter gene assay in Neuro2a with pTHE100×3/Luc and pcDNA4-rAhR; type: cell-based; settings: 1 to 10,000 pM TCDD
T1 construct: The SD-line rat AhR gene-coding region was amplified from the reverse-transcribed sample by means of PCR; V5-His (C-terminal tag of vector pcDNA4/V5-His B); expressed in transfected cells; host or cells: mouse neuroblastoma Neuro2a, transient transfection with LIPOFECTAMINE 2000
T1 sequence (P41738 10-853 Q794H): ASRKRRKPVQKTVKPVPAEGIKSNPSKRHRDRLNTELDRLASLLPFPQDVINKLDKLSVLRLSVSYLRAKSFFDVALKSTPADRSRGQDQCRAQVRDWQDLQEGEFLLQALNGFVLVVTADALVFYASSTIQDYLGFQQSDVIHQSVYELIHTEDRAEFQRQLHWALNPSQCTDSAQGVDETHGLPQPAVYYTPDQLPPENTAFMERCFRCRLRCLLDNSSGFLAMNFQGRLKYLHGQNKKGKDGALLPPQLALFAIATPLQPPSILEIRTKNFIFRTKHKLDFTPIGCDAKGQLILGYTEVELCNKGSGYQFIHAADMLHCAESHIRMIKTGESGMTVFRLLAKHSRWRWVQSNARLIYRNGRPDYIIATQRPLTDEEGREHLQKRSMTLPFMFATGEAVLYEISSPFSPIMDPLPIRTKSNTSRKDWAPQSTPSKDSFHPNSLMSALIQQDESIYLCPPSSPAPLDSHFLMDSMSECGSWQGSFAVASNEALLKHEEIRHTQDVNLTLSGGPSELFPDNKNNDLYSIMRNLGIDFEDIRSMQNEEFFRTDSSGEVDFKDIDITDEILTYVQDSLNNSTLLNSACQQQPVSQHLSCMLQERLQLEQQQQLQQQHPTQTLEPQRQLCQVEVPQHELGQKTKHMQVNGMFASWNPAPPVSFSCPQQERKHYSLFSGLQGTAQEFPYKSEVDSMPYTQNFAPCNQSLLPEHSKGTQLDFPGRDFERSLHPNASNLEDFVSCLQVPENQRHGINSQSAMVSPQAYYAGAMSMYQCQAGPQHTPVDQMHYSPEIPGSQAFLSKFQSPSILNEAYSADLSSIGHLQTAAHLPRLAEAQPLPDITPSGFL
From the text: (§1) In Example 8, the vector pTHE100×3/Luc (Example 7, FIG. 7A) was used as the vector containing a reporter gene, and Neuro2a was used as the cell.
(§2) In this Example, a combination of pcDNA4-rAhR (Example 1) containing the SD-line rat AhR gene and pcDNA4/V5-His/lacZ (Invitrogen), as well as a combination of PGV-mAhR (Example 1) containing the C57/BL6-line mouse AhR gene and pcDNA4/V5-His/lacZ were used as the vectors for introducing into the cell together with pTHE100×3/Luc. pcDNA4-rAhR was introduced into the cell for constitutive expression of the SD-line rat AhR (SEQ ID No: 10); PGV-mAhR was introduced into the cell for constitutive expression of C57/BL6-line mouse AhR (SEQ ID No: 11); and pcDNA4/V5-His/lacZ was introduced into the cell for normalization of the transfection efficiency of the vector.
(§3) The vectors were introduced into the cell by using LIPOFECTAMINE 2000, similarly to the method described in Example 3. After the above vectors were introduced into the cell, the obtained cell was exposed to 1 to 10,000 pM of TCDD to examine the increase in expression amount of the reporter gene in response to TCDD.

[2] = target: T2, C57/BL6-line mouse AhR (Mus musculus, UniProt P30561); assay: Reporter gene assay in Neuro2a with pTHE100×3/Luc and PGV-mAhR; type: cell-based; settings: 1 to 10,000 pM TCDD
T2 construct: The AhR gene-coding region of the C57/BL6-line mouse was amplified from the reverse-transcribed sample by means of PCR; expressed in transfected cells; host or cells: mouse neuroblastoma Neuro2a, transient transfection with LIPOFECTAMINE 2000
T2 sequence (P30561 10-805 M324I/F348L/P471L/N533S/M589L/T758A limits assumed): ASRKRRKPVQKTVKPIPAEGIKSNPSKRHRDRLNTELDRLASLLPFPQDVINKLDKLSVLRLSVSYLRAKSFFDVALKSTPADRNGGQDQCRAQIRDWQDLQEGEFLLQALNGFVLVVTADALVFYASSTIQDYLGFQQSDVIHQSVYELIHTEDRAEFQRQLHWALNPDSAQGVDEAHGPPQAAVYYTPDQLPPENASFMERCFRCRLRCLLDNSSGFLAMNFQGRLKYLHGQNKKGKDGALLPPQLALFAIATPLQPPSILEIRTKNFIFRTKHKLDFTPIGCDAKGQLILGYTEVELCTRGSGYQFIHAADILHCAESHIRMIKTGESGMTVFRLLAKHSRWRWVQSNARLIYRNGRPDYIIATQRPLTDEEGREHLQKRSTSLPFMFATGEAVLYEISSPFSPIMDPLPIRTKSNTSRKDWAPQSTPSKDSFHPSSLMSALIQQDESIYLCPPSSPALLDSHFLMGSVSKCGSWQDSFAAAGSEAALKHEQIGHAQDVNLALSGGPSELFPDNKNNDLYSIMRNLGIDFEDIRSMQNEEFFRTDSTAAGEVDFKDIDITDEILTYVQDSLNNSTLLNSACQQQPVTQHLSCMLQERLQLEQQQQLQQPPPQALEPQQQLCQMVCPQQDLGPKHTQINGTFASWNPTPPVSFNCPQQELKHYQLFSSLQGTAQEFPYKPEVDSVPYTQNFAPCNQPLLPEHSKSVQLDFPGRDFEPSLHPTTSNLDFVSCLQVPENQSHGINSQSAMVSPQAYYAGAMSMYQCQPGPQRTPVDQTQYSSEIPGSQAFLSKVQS
From the text: as §1, §2, §3

Clc1cc2c(cc1Cl)Oc1cc(Cl)c(Cl)cc1O2 [TCDD, 2,3,7,8-tetrachlorodibenzo-p-dioxine]
transcriptional response, rat AhR compared with mouse AhR [1]: transcriptional response greater than that of the C57/BL6-line mouse AhR | induction of transcription of the reporter gene in response to TCDD ([1]; SD-line rat AhR): effective in inducing transcription of the reporter gene | induction of transcription of the reporter gene in response to TCDD [2]: effective in inducing transcription of the reporter gene

Source: patent US7811760B2, “Vector and method for detecting the change in transcription amount” (priority 2006, dated 2010)
